# Laboratory results: paper PMC8119466, “A screen of FDA-approved drugs identifies inhibitors of protein tyrosine phosphatase 4A3 (PTP4A3 or PRL-3)” (Scientific Reports, 2021)
# Where a name gives a salt, the structure may show the parent alone.
# Experiments:
# Format in all cases: biochemical
# Settings in all cases: FDA-approved drug screen
# recombinant PRL-1 = target: T1, recombinant PRL-1 (Homo sapiens, UniProt Q93096); assay: In vitro phosphatase assay (DiFMUP hydrolysis), PRL-1; further: test concentration or dose not given here
# T1 construct: 6xHis (N, cleaved yes); made in house; host or cells: E. coli One Shot BL21 Star
# T1 sequence (Q93096 1-173): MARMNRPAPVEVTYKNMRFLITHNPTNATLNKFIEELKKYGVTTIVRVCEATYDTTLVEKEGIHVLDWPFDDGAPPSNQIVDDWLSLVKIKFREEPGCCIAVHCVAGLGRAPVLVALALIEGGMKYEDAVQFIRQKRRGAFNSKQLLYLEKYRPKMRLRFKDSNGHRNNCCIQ
# recombinant PRL-3 = target: T2, recombinant PRL-3 (Homo sapiens, UniProt O75365); assay: In vitro phosphatase assay (DiFMUP hydrolysis), PRL-3; further: test concentration or dose not given here
# T2 construct: 6xHis (N, cleaved yes); made in house; host or cells: E. coli One Shot BL21 Star
# recombinant PRL-2 = target: T3, recombinant PRL-2 (Homo sapiens, UniProt Q12974); assay: In vitro phosphatase assay (DiFMUP hydrolysis), PRL-2;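 further: PRL-2 activity read as DiFMUP hydrolysis after 20 min at room temperature with drug, enzyme first pre-reduced at 4 °C for 20 min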
# T3 construct: 6xHis (N, cleaved yes); made in house; host or cells: E. coli One Shot BL21 Star
# T3 sequence (Q12974 1-167): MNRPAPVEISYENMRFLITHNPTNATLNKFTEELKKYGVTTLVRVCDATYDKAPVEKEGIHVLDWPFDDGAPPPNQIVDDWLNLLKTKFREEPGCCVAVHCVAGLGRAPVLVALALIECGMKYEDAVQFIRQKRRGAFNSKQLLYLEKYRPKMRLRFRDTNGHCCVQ
# T2 sequence (O75365 whole entry): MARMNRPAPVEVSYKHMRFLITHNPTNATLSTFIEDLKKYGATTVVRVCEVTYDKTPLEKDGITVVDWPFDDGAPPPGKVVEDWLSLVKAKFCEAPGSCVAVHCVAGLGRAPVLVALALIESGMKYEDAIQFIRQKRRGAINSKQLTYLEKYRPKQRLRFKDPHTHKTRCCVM
Compound,% Phosphatase Activity (compared to DMSO) PRL-1 (recombinant PRL-1; activity compared to DMSO),% Phosphatase Activity (compared to DMSO) PRL-3 (recombinant PRL-3; activity compared to DMSO),% Phosphatase Activity (compared to DMSO) PRL-2 (recombinant PRL-2; activity compared to DMSO),% Phosphatase Activity (compared to DMSO) PRL-1 (recombinant PRL-1; compared to DMSO),% Phosphatase Activity (compared to DMSO) PRL-3 (recombinant PRL-3; compared to DMSO),% Phosphatase Activity (compared to DMSO) PRL-2 (recombinant PRL-2; compared to DMSO)
CC1(C)O[C@@H]2[C@@H](CO[C@@]3(COS(N)(=O)=O)OC(C)(C)O[C@@H]23)O1 [Topiramate],118%,99%,122%,,,
O=c1[nH]c(=O)n([C@H]2C[C@H](O)[C@@H](CO)O2)cc1C(F)(F)F [Trifluridine],89%,91%,101%,,,
NC(=O)C[S@@+]([O-])C(c1ccccc1)c1ccccc1 [Armodafinil],,,,94%,73%,90%
OC(CCCN1CCCCC1)(c1ccccc1)c1ccccc1 [Diphenidol HCl],,,,102%,89%,115%
CC1=NN(c2ccc(C)c(C)c2)C(=O)/C1=N\Nc1cccc(-c2cccc(C(=O)O)c2)c1O [Eltrombopag Olamine],,,,56%,35%,66%
CCCc1cc(C(N)=S)ccn1 [Protionamide],,,,100%,97%,101%
CN(C)[C@@H]1C(O)=C(C(N)=O)C(=O)[C@@]2(O)C(O)=C3C(=O)c4c(O)cccc4[C@@](C)(O)[C@H]3C[C@@H]12 [Tetracycline HCl],99%,61%,86%,,,
O=C1CC[C@@]2(O)[C@H]3Cc4ccc(O)c5c4[C@@]2(CCN3CC2CC2)[C@H]1O5 [Naltrexone HCl],,,,100%,95%,120%
O=C1O[C@H]([C@@H](O)CO)C([O-])=C1O.[Na+] [Sodium ascorbate],85%,113%,71%,,,
O=C(NS(=O)(=O)c1ccc(Br)s1)c1ccc(Cl)cc1Cl [Tasisulam],94%,99%,87%,,,
Oc1cccc(O)c1 [Resorcinol],,,,100%,77%,88%
CCC1=C[C@@H]2CN(C1)Cc1c([nH]c3ccccc13)[C@@](C(=O)OC)(c1cc3c(cc1OC)N(C)[C@H]1[C@@](O)(C(=O)OC)[C@H](OC(C)=O)[C@]4(CC)C=CCN5CC[C@]31[C@@H]54)C2 [Vinorelbine Tartrate],89%,83%,98%,,,
CCCCCCCCCCCCCCCC[N+](C)(C)C.[Br-] [Cetrimonium Bromide (CTAB)],,,,97%,92%,103%
COc1ccc(-c2ccc3cc(C(=O)O)ccc3c2)cc1C12CC3CC(CC(C3)C1)C2 [Adapalene],,,,183%,68%,141%
Cc1c(F)cc(C(=O)NC2CC2)cc1-c1ccc(C(=O)NCC(C)(C)C)cn1 [Losmapimod (GW856553X)],,,,91%,103%,66%
O=c1ccn([C@@H]2O[C@H](CO)[C@@H](O)[C@H]2O)c(=O)[nH]1 [Uridine],86%,94%,97%,,,
CCCc1nc2c(C)cc(-c3nc4ccccc4n3C)cc2n1Cc1ccc(-c2ccccc2C(=O)O)cc1 [Telmisartan],86%,92%,77%,,,
CCN(CC)C(=O)/C(C#N)=C/c1cc(O)c(O)c([N+](=O)[O-])c1 [Entacapone],,,,94%,75%,87%
COc1ccc(O)cc1 [Mequinol],,,,104%,85%,120%
CO/N=C(\C(=O)N[C@@H]1C(=O)N2C(C(=O)O)=C(COC(C)=O)CS[C@H]12)c1csc(N)n1 [Cefotaxime sodium],,,,112%,91%,118%

Compound,% Phosphatase Activity (compared to DMSO) PRL-1 (recombinant PRL-1; activity compared to DMSO),% Phosphatase Activity (compared to DMSO) PRL-3 (recombinant PRL-3; activity compared to DMSO),% Phosphatase Activity (compared to DMSO) PRL-2 (recombinant PRL-2; activity compared to DMSO),% Phosphatase Activity (compared to DMSO) PRL-1 (recombinant PRL-1; compared to DMSO),% Phosphatase Activity (compared to DMSO) PRL-3 (recombinant PRL-3; compared to DMSO),% Phosphatase Activity (compared to DMSO) PRL-2 (recombinant PRL-2; compared to DMSO)
C[C@]12CC[C@@H]3c4ccc(O)cc4CC[C@H]3[C@@H]1C[C@@H](O)[C@@H]2O [Estriol],,,,117%,79%,111%
"CNCc1ccc(-c2[nH]c3cc(F)cc4c3c2CCNC4=O)cc1 [Rucaparib (AG-014699,PF-01367338)]",,,,2402%,2134%,3226%
C=CC[C@@H]1/C=C(\C)C[C@H](C)C[C@H](OC)[C@H]2O[C@@](O)(C(=O)C(=O)N3CCCC[C@H]3C(=O)O[C@H](/C(C)=C/[C@@H]3CC[C@@H](O)[C@H](OC)C3)[C@H](C)[C@@H](O)CC1=O)[C@H](C)C[C@@H]2OC [Tacrolimus (FK506)],90%,94%,78%,,,
NC(=O)c1cnccn1 [Pyrazinamide],,,,85%,95%,93%
O=c1sn(-c2cccc3ccccc23)c(=O)n1Cc1ccccc1 [Tideglusib],107%,98%,120%,,,
CCOc1nc2cccc(C(=O)OCc3oc(=O)oc3C)c2n1Cc1ccc(-c2ccccc2-c2noc(=O)[nH]2)cc1 [Azilsartan Medoxomil],,,,91%,90%,96%
O=C(C1CCCCC1)N1CC(=O)N2CCc3ccccc3C2C1 (stereo not drawn) [Praziquantel],,,,102%,73%,88%
COc1ccc(NS(=O)(=O)c2ccc(N)cc2)nn1 [Sulfamethoxypyridazine],94%,77%,109%,,,
N=C(N)c1ccc2cc(OC(=O)c3ccc(N=C(N)N)cc3)ccc2c1 [Nafamostat Mesylate],,,,204%,67%,264%
NC(=O)c1cc(N2CC2)c([N+](=O)[O-])cc1[N+](=O)[O-] [CB1954],,,,100%,105%,74%
COc1ccccc1OCC(O)CN1CCN(CC(=O)Nc2c(C)cccc2C)CC1.Cl.Cl (stereo not drawn) [Ranolazine 2HCl],,,,107%,97%,99%
Escin,,,,72%,95%,73%
OC(c1cc(C(F)(F)F)nc2c(C(F)(F)F)cccc12)C1CCCCN1 (stereo not drawn) [Mefloquine HCl],,,,100%,109%,106%
CS(=O)(=O)c1ccc([C@@H](O)[C@@H](CO)NC(=O)C(Cl)Cl)cc1 [Thiamphenicol],103%,81%,125%,,,
NCCS(=O)(=O)O [Taurine],97%,94%,77%,,,
C[C@@H](O[C@H]1OCCN(Cc2n[nH]c(=O)[nH]2)[C@H]1c1ccc(F)cc1)c1cc(C(F)(F)F)cc(C(F)(F)F)c1 [Aprepitant],,,,104%,80%,94%
C[C@]12C=CC(=O)C=C1CC[C@@H]1[C@@H]2[C@@H](O)C[C@@]2(C)[C@H]1CC[C@]2(O)C(=O)CO [Prednisolone],,,,89%,103%,99%
Cc1cccc(-c2nn3c(c2-c2ccnc4ccc(C(N)=O)cc24)CCC3)n1 [LY2157299],,,,111%,115%,130%
COCCOC(=O)C1=C(C)NC(C)=C(C(=O)OC/C=C/c2ccccc2)C1c1cccc([N+](=O)[O-])c1 (stereo not drawn) [Cilnidipine],,,,95%,68%,95%
